Source: ChEMBL document CHEMBL6109068, “Design, synthesis, and biological evaluation of 5'-deoxy (N)-methanocarbanucleoside derivatives as A3 adenosine receptor ligands” (Bioorg Med Chem Lett, 2025)

Experiments:
[1] = target: T1, Adenosine receptor A3 (Homo sapiens) (UniProt P0DMS8); assay: Displacement of [3H]-NECA from human A3AR stably expressed in HeLa cell membrane at 10 uM relative to control; type: cell membranes
T1 sequence (whole entry): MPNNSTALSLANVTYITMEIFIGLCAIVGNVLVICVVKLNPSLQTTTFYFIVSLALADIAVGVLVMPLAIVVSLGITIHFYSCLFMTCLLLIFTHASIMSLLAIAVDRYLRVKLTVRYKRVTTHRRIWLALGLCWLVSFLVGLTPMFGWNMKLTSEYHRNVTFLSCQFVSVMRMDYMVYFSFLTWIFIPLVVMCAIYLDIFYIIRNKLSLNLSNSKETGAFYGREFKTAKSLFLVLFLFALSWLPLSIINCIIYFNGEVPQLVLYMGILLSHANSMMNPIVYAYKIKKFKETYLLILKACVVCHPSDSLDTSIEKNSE

Adenosine receptor A3 = target: T2, Adenosine receptor A3 (Homo sapiens, UniProt P0DMS8); assay: Displacement of [3H]-NECA from human A3AR stably expressed in HeLa cell membrane; type: cell membranes
T2 sequence (P0DMS8 whole entry): T1 sequence (whole entry)

Row | Compound | inhibition [1] [%] | Ki (Adenosine receptor A3) [nM]
1 | C[C@]12C[C@@H]1[C@@H](n1cnc3c(N)nc(Cl)nc31)[C@H](O)[C@@H]2O | 89 | –
2 | C[C@]12C[C@@H]1[C@@H](n1cnc3c(NCc4cccc(Cl)c4)ncnc31)[C@H](O)[C@@H]2O | – | 70.3
3 | C[C@]12C[C@@H]1[C@@H](n1cnc3c(NCc4cccc(F)c4)nc(Cl)nc31)[C@H](O)[C@@H]2O | – | 124
